Key:
[1] = tested on: LXFL 430 human tumor xenograft cells; experiment: Oncotest tumor clonogenic assay, LXFL 430; type: cell-based; conditions: colony formation, NSCLC LXFL 430, large cell lung carcinoma, pd, read-out: Absolute IC50
[2] = tested on: PAXF 736 human tumor xenograft cells; experiment: Oncotest tumor clonogenic assay, PAXF 736; type: cell-based; conditions: PAXF736, colony formation, Pancreas PAXF 736, adeno carcinoma, pd, read-out: Absolute IC50
[3] = Pharmacokinetic properties in dogs; type: in vivo, dog; conditions: for AUC: both sexes, beagle, dog, plasma, oral gavage, HEC suspension
Experimental: The range of administered doses is between 1 and 12 mg/kg in an HEC suspension.
Blood samples are collected into tubes containing potassium ethylenediaminetetraacetic acid from each dog at 0 (pre-dose), 0.5, 1, 2, 4, 8, and 24 hours post dose. Some studies also include samples collected at 0.25 hr and 12 hr time points. These samples are centrifuged to obtain plasma, which is subsequently frozen prior to analysis. […] The standard curves range from 1 to 5000 ng/mL. Plasma concentrations above the upper limit of quantitation are determined by dilution.

SJSA-1 = experiment: Cell proliferation assay (CellTiter-Glo), SJSA-1; type: cell-based; conditions: Homo sapiens, SJSA-1, 72 h
Experimental: (§1) Plate cells in a 96-well plate at 2000 cells/well in 100 μL of cell specific medium (for U87MG use DMEM, 10% FBS, 25 mM 4-(2-hydroxyethyl)-1-piperazineethanesulfonic acid (HEPES), 1.0 mM sodium pyruvate, and 0.1 mM Non Essential Amino Acids (ATCC Cat.#30-2002); for HT1080 use Eagle's MEM, 10% FBS (ATCC Cat.#30-2003); for H1975, A2780, SJSA-1 and 786-O use RPMI 1640, 10% FBS (ATCC Cat.#30-2001); for A204 use McCoy's 5A, 10% FBS (ATCC Cat.#30-2007) except in column 1 use medium only as the blank control. Incubate the plates overnight at 37° C. and 5% CO2. On the next day, prepare compound stocks at 1 mM in DMSO and serially dilute in DMSO in a 96-well round bottom polypropylene plate. Assay compounds at 10 concentrations in duplicate, 4 compounds per plate.
(§2) Transfer 4 μL of the DMSO serial dilutions to a 96 well plate and add 196 μL of culture medium to create a 10× stock for dosing. Gently transfer 11 μL of each dosing stock to the corresponding well of the cell plate resulting in a 0.2% DMSO concentration and a 111 μL final volume. […]
(§3) Prepared the CellTiter-Glo reagent (Promega, Cat: G7571) and add 100 µL to each well after the incubation is complete, homogenize the cells by mixing on an orbital shaker for 2 min and then incubate at RT for 10 min to allow the luminescent signal to stabilize. Record the luminescent raw data with a Wallac Victor V plate reader. […]

[4] = tested on: human glioblastoma cells U87MG; experiment: Xenograft tumor model, U87MG; type: in vivo, mouse; conditions: oral gavage
Experimental: Expand human glioblastoma cells U87MG and human renal carcinoma cells 786-O, in culture, harvest and inject subcutaneously onto the rear flank of athymic nude mice. Expand human non-small cell lung cancer cells NCI-H1975 in culture, harvest and inject subcutaneously onto the rear flank of CD-1 nu/nu mice. Prepare test compound in an appropriate vehicle and administer by oral gavage when tumors are established (7-21 days after implant). Tumor response is determined by tumor volume measurement performed twice a week during the course of treatment. Body weight is taken as a general measurement of toxicity.

[5] = tested on: PAXF 546 human tumor xenograft cells; experiment: Oncotest tumor clonogenic assay, PAXF 546; type: cell-based; conditions: PAXF546, colony formation, Pancreas PAXF 546, inf., mucous squamous cell carcinoma, read-out: Absolute IC50
[6] = tested on: CXF 975 human tumor xenograft cells; experiment: Oncotest tumor clonogenic assay, CXF 975; type: cell-based; conditions: colony formation, Colon CXF 975, adeno carcinoma, md, read-out: Absolute IC50
[7] = tested on: LXFA 526 human tumor xenograft cells; experiment: Oncotest tumor clonogenic assay, LXFA 526; type: cell-based; conditions: colony formation, NSCLC LXFA 526, adeno carcinoma, pd, read-out: Absolute IC50
H1975 = experiment: Cell proliferation assay (CellTiter-Glo), H1975; type: cell-based; conditions: Homo sapiens, NCI-H1975, 72 h
Experimental: as §1, §2, §3

[8] = tested on: LXFA 629 human tumor xenograft cells; experiment: Oncotest tumor clonogenic assay, LXFA 629; type: cell-based; conditions: colony formation, NSCLC LXFA 629, adeno carcinoma, pd, read-out: Absolute IC50

- IC50 [1]: 56 nM
- IC50 [2]: 174 nM
- AUC ([3]; 1 mg/kg, 10 animals): 1160 ng·h/mL
- AUC ([3]; 3 mg/kg, 10 animals): 3780 ng·h/mL
- AUC ([3]; 4.5 mg/kg, 2 animals): 5920 ng·h/mL
- AUC ([3]; 6 mg/kg, 2 animals): 9620 ng·h/mL
- AUC ([3]; 9 mg/kg, 2 animals): 10800 ng·h/mL
- AUC ([3]; 12 mg/kg, 2 animals): 19200 ng·h/mL
- correlation of determination R^2, linear regression of the mean AUC values for each dose ([3]; oral, 1 to 12 mg/kg): 0.96
- IC50 (SJSA-1): 96 nM
- IC50 [5]: 105 nM
- IC50 [6]: 142 nM
- IC50 [7]: 84 nM
- IC50 (H1975): 102 nM
- IC50 [8]: 26 nM
Structure (SMILES): CO[C@@H](C)Cn1c(=O)n(C)c2cnc3ccc(-c4cncc(C(C)(C)O)c4)cc3c21 [Example 1, 8-[5-(1-Hydroxy-1-methylethyl)pyridin-3-yl]-1-[(2S)-2-methoxypropyl]-3-methyl-1,3-dihydro-2H-imidazo[4,5-c]quinolin-2-one]
- % TGI ([4]; 3 mg/kg BID): 38.6%
- % TGI ([4]; 6 mg/kg BID): 57.7%
- % TGI ([4]; 10 mg/kg BID): 86.1%
- % TGI ([4]; 12 mg/kg QD): 53.4%
